# Laboratory results: US5120752A, “Cyclopropyl derivative lipoxygenase inhibitors” (Abbott Laboratories, priority 1990, dated 1992)
# Tested on: LTB4 biosynthesis in human whole blood
# Assay: Inhibition of calcium ionophore-induced LTB4 biosynthesis in human whole blood
# Assay type: cell-based
# Settings: 0.2 μM, read-out: Inhibition of Leukotriene Biosynthesis (% at 0.2 μM)
# Experimental: Inhibition of leukotriene biosynthesis was evaluated in an assay, involving calcium ionophore-induced LTB4 biosynthesis expressed by human whole blood. Heparinized (20 U/mL) human blood (0.3 mL) was preincubated with test compound or vehicle for 15 min. at 37° C. Eicosanoid biosynthesis was initiated by adding calcium ionophore (A23187) in DMSO to a final concentration of 50 μM and terminated after 30 min. by rapid cooling of the blood in an ice bath and centrifuging at 3° C. for 10 min at 2500×g. The plasma was mixed with 4 volumes of methanol and allowed to stand for at least 30 min. at 3° C. prior to centrifuging at 1800×g for 10 min. The level of LTB4 in aliquots of the methanol-plasma extract was analyzed by radio-immunoassay or enyme-immunoassay techniques.
row,SMILES,inhibition at 0.2 µM [%]
1,"CNC(=O)N(O)C[C@@H]1C[C@H]1c1cccc(Oc2ccc(F)cc2)c1 (relative stereo) [Example 177, N-(1-trans-(2-(3-(4-fluorophenoxy)phenyl)cyclopropyl)methyl)-N-hydroxy-N'-methylurea]",69

# Same assay, conditions: 0.39 μM, read-out: Inhibition of Leukotriene Biosynthesis (% at 0.39 μM)
row,SMILES,inhibition at 0.39 µM [%]
1,"CNC(=O)N(O)C[C@@H]1C[C@H]1c1cccc(Oc2ccccn2)c1 (relative stereo) [Example 171, N-(1-trans-(2-(3-(2-pyridyloxy)phenyl)cyclopropyl)methyl)-N-hydroxy-N'-methylurea]",40

# Same assay, conditions: A23187 50 μM, 15 min preincubation, read-out: Inhibition of Leukotriene Biosynthesis IC50
row,IC50 [µM],SMILES
1,0.25,"Cc1ccc(Oc2cccc([C@@H]3C[C@H]3C(C)CN(O)C(N)=O)c2)cc1 (stereo partly drawn) [Example 162, N-(2-trans-(2-(3-(4-methylphenoxy)phenyl)cyclopropyl)propyl)-N-hydroxyurea]"
2,0.21,"CNC(=O)N(O)C[C@@H]1C[C@H]1c1ccsc1 (relative stereo) [Example 187, N-(1-trans-(2-(3-thienyl)cyclopropyl)methyl)-N-hydroxy-N'-methylurea]"
3,0.19,"CC(=O)N(O)C[C@@H]1C[C@H]1c1ccco1 (relative stereo) [Example 195, N-(1-trans-(2-(2-furanyl)cyclopropyl)methyl)-N-hydroxyacetamide]"
4,0.98,"CC(=O)N(O)C(C)[C@@H]1C[C@H]1c1cccs1 (stereo partly drawn) [Example 196, N-(1-trans-(2-(2-thienyl)cyclopropyl)ethyl)-N-hydroxyacetamide]"
5,0.2,"CC(=O)N(O)C[C@@H]1C[C@H]1c1cccs1 (relative stereo) [Example 190, N-(1-trans-(2-(2-thienyl)cyclopropyl)methyl)-N-hydroxyacetamide]"
6,0.85,"CNC(=O)N(O)C(C)[C@@H]1C[C@H]1c1ccc(C)o1 (stereo partly drawn) [Example 184, N-(1-trans-(2-(5-methyl-2-furanyl)cyclopropyl)ethyl)-N-hydroxy-N'-methylurea]"
7,0.69,Cc1ccc([C@@H]2C[C@H]2C(C)N(O)C(N)=O)s1 (some centres unmarked) [Example 182]
8,0.23,"CNC(=O)N(O)C[C@@H]1C[C@H]1c1cccc(Oc2cccc(C)c2)c1 (relative stereo) [Example 173, N-(1-trans-(2-(3-(3-methylphenoxy)phenyl)cyclopropyl)methyl)-N-hydroxy-N-methylurea]"
9,0.47,"NC(=O)N(O)C[C@@H]1C[C@H]1c1cccc(Oc2ccc(O)cc2)c1 (relative stereo) [Example 160, N-(1-trans-(2-(3(4-hydroxyphenoxy)phenyl)cyclopropyl)methyl)-N-hydroxyurea]"
10,0.62,"CNC(=O)N(O)C(C)[C@@H]1C[C@H]1c1ccco1 (stereo partly drawn) [Example 183, N-(1-trans-(2-(2-furanyl)cyclopropyl)ethyl)-N-hydroxy-N'-methylurea]"
11,0.2,"CCc1ccc(Oc2cccc([C@@H]3C[C@H]3CN(O)C(=O)NC)c2)cc1 (relative stereo) [Example 175, N-(1-trans-(2-(3-(4-ethylphenoxy)phenyl)cyclopropyl)methyl)-N-hydroxy-N'-methyl-hydroxyurea]"
12,0.74,CCOc1ccc(Oc2cccc([C@@H]3C[C@H]3CN(O)C(=O)NC3CC3)c2)cc1 (relative stereo) [Example 165]
13,0.96,"CC([C@@H]1C[C@H]1c1cccc(Oc2ccccn2)c1)N(O)C(N)=O (single isomer, unassigned) [Example 172a, N-(1-trans-(2-(3-(2-pyridyloxy)phenyl)cyclopropyl)ethyl)-N-hydroxyurea]"
14,0.06,"NC(=O)N(O)C[C@@H]1C[C@H]1c1cnc(Oc2ccc(Cl)cc2)s1 (relative stereo) [Example 199, N-(1-trans-(2-(2-(4-chlorophenoxy)-5-thiazolyl)cyclopropyl)methyl)-N-hydroxyurea]"
15,1.6,"CC([C@@H]1C[C@H]1c1cccs1)N(O)C(N)=O (stereo partly drawn) [Example 197, N-(1-trans-(2-(2-thienyl)cyclopropyl)ethyl)-N-hydroxyurea]"
